Test results from patent US20100144626A1, “Treatment of Multi-Drug Resistant Bacterial Infections” (priority 2006, published 2010).
In brackets after ≈: the same amount, converted by molar mass. Entries after “also recorded” stand apart in the source; their conditions may differ. Read-outs that look alike come from different tables or passages of the source.

How the values were obtained:
Assay type in all cases: cell-based
[1] = system: Acinetobacter Baumannii ATCC 19606; test: MIC, agar dilution (BSAC guidelines)
Protocol: (§1) In example experiments miconazole nitrate, was dissolved in methanol and econazole nitrate and clotrimazole were dissolved in DMSO and methanol respectively. Other solvents that may be used include caster oil, pyridine, DMSO and 0.9% saline. For IV administration agents may be solubilised in polyethoxylated caster oil, or cyclodextrins such as sulfobutylether7-βcyclodextrin or hydroxypropyl-β-cyclodextrin and lactic acid. Minimum inhibitory concentrations (MICs) of a range of clinical and control bacterial organisms were measured according to BSAC (British Society for Antimicrobial Chemotherapy) guidelines, described briefly as follows;
(§2) Preparation of Agar Plates and Broths
(§3) Stock solutions of each agent were prepared using the formula:
(§4) Where P=μg of active compound per mg (μg/mg) • V=volume required (mL) • C=final concentration of solution (mg/L) • W=weight of agent (mg) to be dissolved in volume V (mL)
(§5) Stock solutions were prepared at concentrations of 1000 mg/L and 100 mg/L. The appropriate amounts of each stock solution were added to separate Petri dishes give the following final concentrations (after the addition of 20 mL molten agar): 128, 64, 32, 16, 8, 4, 2, 1, 0.5, 0.25, 0.12, 0.06, 0.03, 0.015 mg/L.
(§6) Volumes (20 mL) of cooled molten IST agar (oxoid) was added to each Petri dish and mixed by swirling.
(§7) After drying, the plates were stored at 4° C. and protected from light. Plates were used on the day of preparation.
(§8) The test organisms were grown overnight in 5 mL IST broth. Using a dilution in 0.9% saline of 1:500 for Gram-negative organisms and 1:100 for Gram-positive organisms, the appropriate agar plates were inoculated using a multipoint inoculator.
(§9) Plates were incubated at 37° C. in air for 18-20 hours.
(§10) The MIC is the minimum amount of an antibiotic at which there is no visible growth of bacteria. Tiny single colonies or faint hazes were not counted as growth.

[2] = system: Pseudomonas aeruginosa NCTC 10662; test: MIC, agar dilution (BSAC guidelines)
Protocol: as §1, §2, §3, §4, §5, §6, §7, §8, §9, §10

[3] = system: Staphylococcus epidermidis ATCC 1228; test: MIC, agar dilution (BSAC guidelines)
Protocol: as §1, §2, §3, §4, §5, §6, §7, §8, §9, §10

[4] = system: Escherichia coli NCTC 10418; test: MIC, agar dilution (BSAC guidelines)
Protocol: as §1, §2, §3, §4, §5, §6, §7, §8, §9, §10

[5] = system: VISA, strain USA/VISA 5836; test: MIC, agar dilution (BSAC guidelines); settings: Staphylococcus aureus
Protocol: as §1, §2, §3, §4, §5, §6, §7, §8, §9, §10

[6] = system: VISA, strain USA/VISA 5827; test: MIC, agar dilution (BSAC guidelines); settings: Staphylococcus aureus
Protocol: as §1, §2, §3, §4, §5, §6, §7, §8, §9, §10

[7] = system: Enterococcus faecium (VRE) VanR B145344C LFE; test: MIC, agar dilution (BSAC guidelines); settings: E. faecium (VRE) VanR B145344C LFE
Protocol: as §1, §2, §3, §4, §5, §6, §7, §8, §9, §10

[8] = system: Enterococcus faecium (VRE) E15 VanA ATCC 4147; test: MIC, agar dilution (BSAC guidelines)
Protocol: as §1, §2, §3, §4, §5, §6, §7, §8, §9, §10

[9] = system: Enterococcus faecium (VRE) E19 UAA/522 VanB; test: MIC, agar dilution (BSAC guidelines); settings: E. faecium (VRE) E19 UAA/522 VanB
Protocol: as §1, §2, §3, §4, §5, §6, §7, §8, §9, §10

[10] = system: Enterococcus faecalis (VRE) E8 VanA; test: MIC, agar dilution (BSAC guidelines); settings: E. faecalis (VRE) E8 VanA
Protocol: as §1, §2, §3, §4, §5, §6, §7, §8, §9, §10

[11] = system: Enterococcus gallinarum (VRE) E1 NCTC 12359 VanC1; test: MIC, agar dilution (BSAC guidelines)
Protocol: as §1, §2, §3, §4, §5, §6, §7, §8, §9, §10

[12] = system: Klebsiella pneumoniae ESBL 700603; test: MIC, agar dilution (BSAC guidelines)
Protocol: as §1, §2, §3, §4, §5, §6, §7, §8, §9, §10

[13] = system: Enterococcus faecium (VRE) NCTC 7171; test: MIC, agar dilution (BSAC guidelines)
Protocol: as §1, §2, §3, §4, §5, §6, §7, §8, §9, §10

[14] = system: VISA, strain VISA 3900 UK; test: MIC, agar dilution (BSAC guidelines); settings: Staphylococcus aureus
Protocol: as §1, §2, §3, §4, §5, §6, §7, §8, §9, §10

[15] = system: Gram-negative organisms; test: Growth inhibition, summary of MIC testing; settings: summary in words
Protocol: as §1, §5, §8, §9, §10

[16] = system: strains of Staphylococci and Enterococci with reduced susceptibility to vancomycin; test: Growth inhibition, summary of MIC testing; settings: summary in words
Protocol: as §1, §5, §8, §9, §10

[17] = replicate 1, read-out: Minimum inhibitory concentration (MIC)
[18] = replicate 2, read-out: Minimum inhibitory concentration (MIC)
[19] = replicate 3, read-out: Minimum inhibitory concentration (MIC)

Clc1ccccc1C(c1ccccc1)(c1ccccc1)n1ccnc1 [Clotrimazole, 1-[(2-chlorophenyl)diphenylmethyl]-1H-imidazole]
MIC ([1]; ATCC19606, Acinetobacter Baumannii ATCC 19606, replicate 1, read-out: Minimum inhibitory concentration (MIC)): > 10 µg/mL | MIC ([1]; ATCC19606, Acinetobacter Baumannii ATCC 19606, replicate 2, read-out: Minimum inhibitory concentration (MIC)): > 6 µg/mL | MIC ([1]; ATCC19606, Acinetobacter Baumannii ATCC 19606, replicate 3, read-out: Minimum inhibitory concentration (MIC)): > 6 µg/mL | MIC ([2]; NCTC10662, P. aeruginosa NCTC 10662, replicate 1, read-out: Minimum inhibitory concentration (MIC)): > 10 µg/mL | MIC ([2]; NCTC10662, P. aeruginosa NCTC 10662, replicate 2, read-out: Minimum inhibitory concentration (MIC)): > 6 µg/mL | MIC ([2]; NCTC10662, P. aeruginosa NCTC 10662, replicate 3, read-out: Minimum inhibitory concentration (MIC)): > 6 µg/mL | MIC ([3]; ATCC1228, S. epidermidis ATCC 1228, replicate 1, read-out: Minimum inhibitory concentration (MIC)): 3 µg/mL (≈ 8.7 µM) | MIC ([3]; ATCC1228, S. epidermidis ATCC 1228, replicate 2, read-out: Minimum inhibitory concentration (MIC)): 3 µg/mL (≈ 8.7 µM) | MIC ([3]; ATCC1228, S. epidermidis ATCC 1228, replicate 3, read-out: Minimum inhibitory concentration (MIC)): 2.5 µg/mL (≈ 7.25 µM) | MIC ([4]; NCTC10418, E. coli NCTC 10418, replicate 1, read-out: Minimum inhibitory concentration (MIC)): > 10 µg/mL | MIC ([4]; NCTC10418, E. coli NCTC 10418, replicate 2, read-out: Minimum inhibitory concentration (MIC)): > 6 µg/mL | MIC ([4]; NCTC10418, E. coli NCTC 10418, replicate 3, read-out: Minimum inhibitory concentration (MIC)): > 6 µg/mL | MIC [5, 17]: 1.5 µg/mL (≈ 4.35 µM) | MIC [5, 18]: 3 µg/mL (≈ 8.7 µM) | MIC [5, 19]: 2.5 µg/mL (≈ 7.25 µM) | MIC [6, 17]: 1.5 µg/mL (≈ 4.35 µM) | MIC [6, 18]: 3.5 µg/mL (≈ 10.1 µM) | MIC [6, 19]: 3 µg/mL (≈ 8.7 µM) | MIC [7, 17]: 3 µg/mL (≈ 8.7 µM) | MIC [7, 18]: 4.5 µg/mL (≈ 13 µM) | MIC [7, 19]: 5 µg/mL (≈ 14.5 µM) | MIC ([8]; E. faecium (VRE) E15 VanA ATCC 4147, replicate 1, read-out: Minimum inhibitory concentration (MIC)): 2.5 µg/mL (≈ 7.25 µM) | MIC ([8]; E. faecium (VRE) E15 VanA ATCC 4147, replicate 2, read-out: Minimum inhibitory concentration (MIC)): 4 µg/mL (≈ 11.6 µM) | MIC ([8]; E. faecium (VRE) E15 VanA ATCC 4147, replicate 3, read-out: Minimum inhibitory concentration (MIC)): 4.5 µg/mL (≈ 13 µM) | MIC [9, 17]: 1.5 µg/mL (≈ 4.35 µM) | MIC [9, 18]: 3.5 µg/mL (≈ 10.1 µM) | MIC [9, 19]: 3.5 µg/mL (≈ 10.1 µM) | MIC [10, 17]: 6.5 µg/mL (≈ 18.8 µM) | MIC [10, 18]: > 6 µg/mL | MIC [10, 19]: > 6 µg/mL | MIC ([11]; E. gallinarum (VRE) E1 NCTC 12359 VanC1, replicate 1, read-out: Minimum inhibitory concentration (MIC)): 4 µg/mL (≈ 11.6 µM) | MIC ([11]; E. gallinarum (VRE) E1 NCTC 12359 VanC1, replicate 2, read-out: Minimum inhibitory concentration (MIC)): 6 µg/mL (≈ 17.4 µM) | MIC ([11]; E. gallinarum (VRE) E1 NCTC 12359 VanC1, replicate 3, read-out: Minimum inhibitory concentration (MIC)): > 6 µg/mL | MIC ([12]; ESBL700603, K. pneumoniae ESBL 700603, replicate 1, read-out: Minimum inhibitory concentration (MIC)): > 10 µg/mL | MIC ([12]; ESBL700603, K. pneumoniae ESBL 700603, replicate 2, read-out: Minimum inhibitory concentration (MIC)): > 6 µg/mL | MIC ([12]; ESBL700603, K. pneumoniae ESBL 700603, replicate 3, read-out: Minimum inhibitory concentration (MIC)): > 6 µg/mL | MIC ([13]; E. faecium (VRE) NCTC 7171, replicate 1, read-out: Minimum inhibitory concentration (MIC)): 4 µg/mL (≈ 11.6 µM) | MIC ([13]; E. faecium (VRE) NCTC 7171, replicate 2, read-out: Minimum inhibitory concentration (MIC)): 6 µg/mL (≈ 17.4 µM) | MIC ([13]; E. faecium (VRE) NCTC 7171, replicate 3, read-out: Minimum inhibitory concentration (MIC)): > 6 µg/mL | MIC [14, 17]: 1.5 µg/mL (≈ 4.35 µM) | MIC [14, 18]: 2.5 µg/mL (≈ 7.25 µM) | MIC [14, 19]: 2.5 µg/mL (≈ 7.25 µM) | activity against Gram-negative organisms [15]: no significant activity | activity against strains of Staphylococci and Enterococci with reduced susceptibility to vancomycin [16]: good activity; also recorded: capable of inhibiting the growth
